From patent EP0819688A1, “4-substituted benzofuranes” (Byk Gulden Lomberg Chemische Fabrik GmbH, priority 1996, dated 1998)

Test system: PDE IV
Experiment: Inhibition of PDE IV activity (method of Bauer and Schwabe, adapted to microtiter plates)
Format: biochemical
Settings: Hemmung der PDE IV-Aktivität
From the text: Der Aktivitätstest wurde nach der Methode von Bauer und Schwabe durchgeführt, die auf Mikrotiterplatten adaptiert wurde (Naunyn-Schmiedeberg's Arch. Pharmacol. 1980, 311, 193-198). Hierbei erfolgt im ersten Schritt die PDE-Reaktion. In einem zweiten Schritt wird das entstandene 5'-Nukleotid durch eine 5'-Nukleotidase des Schlangengiftes von ophiophagus hannah (King Cobra) zum ungeladenen Nukleosid gespalten. Im dritten Schritt wird das Nukleosid auf Ionenaustauschsäulen vom verbliebenen geladenen Substrat getrennt. Die Säulen werden mit 2 ml 30 mM Ammoniumformiat (pH 6,0) direkt in Minivials eluiert, in die noch 2 ml Szintillatorflüssigkeit zur Zählung gegeben wird.
Die für die erfindungsgemäßen Verbindungen ermittelten Hemmwerte ergeben sich aus der folgenden Tabelle A, in der die Nummern der Verbindungen den Nummern der Beispiele entsprechen. Tabelle A

| Compound | PDE4 -logIC50 |
| --- | --- |
| COc1ccc(C=C(C#N)c2ccncc2)c2cc(C(C)C)oc12 (mixture of isomers) [Verbindung 9, (E/Z)-4-[2-Cyano-2-(pyrid-4-yl)ethenyl]-2-isopropyl-7-methoxybenzofuran] | 6,64 |
| COc1ccc(CC(C#N)c2ccncc2)c2cc(C3CCCC3)oc12 (racemic) [Verbindung 10, (±)-4-[2-Cyano-2-(pyrid-4-yl)ethyl]-2-cyclopentyl-7-methoxybenzofuran] | 6,56 |
| COc1ccc(C(O)Cc2ccncc2)c2cc(C(C)C)oc12 (racemic) [Verbindung 2, (±)-4-[1-Hydroxy-2-(pyrid-4-yl)ethyl]-2-isopropyl-7-methoxybenzofuran] | 6,86 |
| COc1ccc(CCc2ccncc2)c2cc(C3CCCC3)oc12 [Verbindung 5, 2-Cyclopentyl-7-methoxy-4-[2-(pyrid-4-yl)ethyl]benzofuran] | 7,97 |
| COc1ccc(CC(C#N)c2cccnc2)c2cc(C3CCCC3)oc12 (racemic) [Verbindung 11, (±)-4-[2-Cyano-2-(pyrid-3-yl)ethyl]-2-cyclopentyl-7-methoxybenzofuran] | 6,99 |
| COc1ccc(/C=C(\C#N)c2ccncc2)c2cc(C3CCCC3)oc12 [Verbindung 7, (Z)-4-[2-Cyano-2-(pyrid-4-yl)ethenyl]-2-cyclopentyl-7-methoxy-benzofuran] | 6,29 |
| COc1ccc(C(O)Cc2ccncc2)c2cc(C3CCCC3)oc12 (racemic) [Verbindung 1] | 6,45 |
| COc1ccc(CC(C#N)c2ccncc2)c2cc(C(C)C)oc12 (racemic) [Verbindung 12, (±)-4-[2-Cyano-2-(pyrid-4-yl)ethyl]-2-isopropyl-7-methoxybenzofuran] | 7,26 |
| COc1ccc(CCc2ccncc2)c2cc(C(C)C)oc12 [Verbindung 6, 2-Isopronyl-7-methoxy-4-[2-(pyrid-4-yl)ethyl]benzofuran] | 8,22 |
| COc1ccc(/C=C/c2ccncc2)c2cc(C3CCCC3)oc12 [Verbindung 3, (E)-2-Cyclopentyl-4-[2-(pyrid-4-yl)ethenyl]-7-methoxybenzofuran] | 6,77 |
| COc1ccc(/C=C/c2ccncc2)c2cc(C(C)C)oc12 [Verbindung 4, (E)-2-Isopropyl-4-[2-(pyrid-4-yl)ethenyl]-7-methoxybenzofuran] | 7,21 |
| COc1ccc(/C=C(\C#N)c2cccnc2)c2cc(C3CCCC3)oc12 [Verbindung 8, (Z)-4-[2-Cyano-2-(pyrid-3-yl)ethenyl]-2-cyclopentyl-7-methoxy-benzofuran] | 6,51 |
